Laboratory results taken from patent US5723494A, “Derivatives of glutamic and aspartic acids, a method of preparing them, and their use as drugs for enhancing memory and learning” (priority 1993, dated 1998).

What was measured:
[1] = Antidepressant activity in the behavioural despair test in the mouse; format: in vivo, mouse (male CD1); settings: for inhibition in vivo at 1 mg/kg / inhibition in vivo at 3 mg/kg / inhibition in vivo at 10 mg/kg / inhibition in vivo at 30 mg/kg: 5 min, 5 minutes, read-out: Decrease in immobility (as %) vs the controls; for inhibition in vivo at 1 mg/kg: 1 mg/kg IP; for inhibition in vivo at 3 mg/kg: 3 mg/kg IP; for inhibition in vivo at 10 mg/kg: 10 mg/kg IP; for inhibition in vivo at 30 mg/kg: 30 mg/kg IP; for ED50 (dose antagonising immobility time by 50%) / ED50 / Antidepressant activity (in words): IP; for ED50: read-out: ED50 (dose antagonising immobility time by 50%)
From the text: 5) Antidepressant activity in the "behavioural despair test" Another interesting aspect of the pharmacological activity of these products is the potent antidepressant activity which some of them display in an experimental model in the mouse, in which a state of depression is induced experimentally by the method of Porsolt et al. (Arch. Int. Pharmacodyn. 229, p. 327-336 (1977)). Male CDl mice which weighed about 20-25 g and had not fasted were used. The test consisted of inducing a state of depression in the animal which was subjected to forced swimming in a glass cylinder from which it could not escape. After a short period of vigorous activity the mouse adopted a characteristic posture of immobility which was easily identifiable; this immobility is reduced by antidepressant drugs. 1 l glass beakers, filled to 700 ml with water at a temperature of 25° C. were used for the test. The mice, 8 per group, were treated intraperitoneally with the drug under test, 30 minutes before the test. At time 0, each animal was immersed in a beaker and, after one minute during which all moved about swimming vigorously in order to escape, regardless of treatment, the observer, who was unaware of the treatment, assigned the following points: 0=animal immobile 1=minimum movement to remain afloat 2=vigorous swimming The greater the antidepressant activity of the drug, the more the animals will move about in order to try to escape from the water. The points were assigned every 15 sec for a total period of 5 min with a total of 20 observations. The antidepressant activity was determined with the use of various doses of the compound by the regression method as the ED50, that is, the dose in mg/kg of the compound which could antagonise the animal's immobility time by 50%.

[2] = molecular target: excitor amino-acid receptors of cortical membranes ("forebrain") of rats; assay: Inhibition of the specific binding of [3H]-glutamate to rat forebrain membranes; settings: for IC50: rat forebrain membranes, 20 min, 37° C., pH 7.1
From the text: 6) Studies on binding to rat "forebrain" membranes
L-glutamate recognizes all three receptor subtypes indicated above, al though not selectively. It is therefore desirable to evaluate the capacity of each of the compounds of the invention to interact with the excitor amino-acid receptors of the CNS.
"Forebrain", that is, the cerebral cortex and the hippocampus, were selected as the receptor tissue and ^3 H-L-glutamate as the ligand for marking this heterogenous receptor population.
Rat cerebral tissue (forebrain without striated tissue) was therefore homogeneised cold in tris buffer at pH 7.4. After washing and centrifuging, the final pellet was resuspended in 50 volumes of tris HCl binding buffer at 7.1. 0.5 ml of receptor membrane thus obtained were then incubated, together with the radioactive tracer and the compounds under test, for 20 min at 37° C. The reaction was terminated by separating the bound radio-ligand from the free radio-ligand by filteration on glass-fibre filters which, after washing, were counted in a liquid scintillator (a β-counter) thus determining the radioactivity associated with the pellet. The specific binding was determined as the difference between the binding in the absence and in the presence of cold 3.6 mM L-glutamate.

[3] = Memory-enhancement activity in the passive avoidance test in the rat; format: in vivo, rat (male Wistar); settings: rat; for change in vivo at 0.1 mg/kg / change in vivo at 1 mg/kg / change in vivo at 10 mg/kg: 96 h, 6 treatments, read-out: % variation vs controls (FS) in step through latency; for change in vivo at 0.1 mg/kg: 0.1 mg/kg IP; for change in vivo at 0.1 mg/kg / change in vivo at 1 mg/kg / change in vivo at 10 mg/kg / Activity in increasing the avoidance time (in words): retest on the 4th day; for change in vivo at 1 mg/kg: 1 mg/kg IP; for change in vivo at 10 mg/kg: 10 mg/kg IP; for Activity in increasing the avoidance time (in words) / ED30: IP; for ED30: read-out: ED30 (dose increasing the latency time (STL) by 30%)
Description: 2) Memory-enhancement activity in the "passive avoidance" test in the rat
A "passive avoidance" model was used, which required a single "step-through" situation and a retest of the "retention memory" 72 h after the training.
Male Wistar rats which weighed about 200 g and had not fasted, were used. The test consisted of evaluating the degree of memory of an animal after it had been trained as follows.
The equipment used was a shuttle box modified thus: one compartment was lined with black card including the cover, and a 60 W lamp was disposed above the other, spaced from the grid floor by about 40 cm. The two compartments were divided by an automatic guillotine-like door. Each animal was placed in the compartment in the light with the guillotine-likedoor open. From this moment, the time taken by the rat to go into the compartment lined with black card (the dark compartment) (the step-throughlatency=STL) was measured. The animals which took more than 30 sec to go into the dark were discarded. Once they had gone into the dark, the door was lowered automatically and a=0.1 mA shock lasting 5 sec (a foot shock=FS) started. After 10 sec, the animal was removed from the shuttle box.
Upon completion, the animals were selected randomly in homogeneous groups and treated with the products.
The retest to determine memory was made after 72 hours. The products were administered chronically in the preselected manner twice per day and the last treatment 30 min before the retest (6 treatments altogether).
The memory-retention test (the retest) consisted of placing each animal, treated 30 min beforehand with a physiological solution or with the product, in the compartment which was not lined with black card for 30 sec.
The results are expressed as the percentage variation of the STL (in seconds) of the groups treated in comparison with the control group by means of this formula: [formula]

[4] = Antiamnesic activity in the mouse (step-down passive avoidance, amnesia induced by ECS); format: in vivo, mouse (CD1 male); settings: mouse; for Antiamnesic activity (in words) / ED50: OS; for change in vivo at 0.1 mg/kg / change in vivo at 1 mg/kg / change in vivo at 10 mg/kg / change in vivo at 3 mg/kg / change in vivo at 30 mg/kg / ED50 / change in vivo at 0.3 mg/kg: po; for change in vivo at 0.1 mg/kg: 0.1 mg/kg OS; for change in vivo at 0.1 mg/kg / change in vivo at 1 mg/kg / change in vivo at 10 mg/kg / change in vivo at 3 mg/kg / change in vivo at 30 mg/kg / change in vivo at 0.3 mg/kg: retest 24 h after training, read-out: Reversal of the amnesia (% vs controls), as the increase in the Step Down Latency; for change in vivo at 1 mg/kg: 1 mg/kg OS; for change in vivo at 10 mg/kg: 10 mg/kg OS; for change in vivo at 3 mg/kg: 3 mg/kg OS; for change in vivo at 30 mg/kg: 30 mg/kg OS; for ED50: 60 min before training, read-out: ID50 (antiamnesic activity, dose inhibiting the amnesic effect of the ECS by 50%); for change in vivo at 0.3 mg/kg: 0.3 mg/kg OS
From the text: 1) Antiamnesic activity in the mouse (step-down passive avoidance)
An electroconvulsive shock (ECS) produces retrograde amnesia in the test animal if applied immediately after the training received, for example, a harmful stimulus of a suitable intensity.
The object of the experiment was to study the effects of the compounds of the invention in antagonizing the amnesic effect of an ECS on the short-term memory consolidation process.
CD1 male mice which weighed about 30-35 g, and had not fasted were used. The equipment used was a rectangular plexiglass cage (21×21×40cm) with an electrifiable grid floor and a wooden cube (4×4×4 cm) fixed in the centre of the cage. The animals were treated orally with the product under test 60 minutes before the training.
The mouse was placed delicately on the wooden cube and the time it took to descend to the grid floor (SDL=step-down latency) was measured. When all four of the animal's paws were resting on the floor the continuous 0.2 mA shock started and the time taken by The mouse to remount the wooden cube (EL=escape latency) was measured.
The animals with an SDL of between 3 and 30 sec and with an EL of between 3 and 60 sec were used for retesting.
Immediately afterwards, a transcorneal ECS was applied with the use of the following parameters: amperage 15 mA, frequency 50 Hz, duration of the train of pulses 0.4 sec. duration of each individual pulse 1 msec., interval between pulses 20 msec. As well as the groups treated with ECS, a control group without ECS and a control group with ECS were used.
The retest was carried out after 24 h.
The results are expressed as the percentage variation of the SDL of the treated groups in comparison with the control group by means of this formula: [formula]

IC50 [2]	Compound	inhibition in vivo at 1 mg/kg [1]	inhibition in vivo at 3 mg/kg [1]	inhibition in vivo at 10 mg/kg [1]	inhibition in vivo at 30 mg/kg [1]	ED50 (dose antagonising immobility time by 50%) [1]	change in vivo at 0.1 mg/kg [3]	change in vivo at 1 mg/kg [3]	change in vivo at 10 mg/kg [3]	ED50 [1]	Antidepressant activity (in words) [1]	Antiamnesic activity (in words) [4]	change in vivo at 10 mg/kg [4]	change in vivo at 3 mg/kg [4]	change in vivo at 30 mg/kg [4]	ED50 [4]	also measured
70.7 µM	CC1(C)CCC(NC(=O)CC[C@H](N)C(=O)O)CC1 [Compound 48, 1-(4,4-dimethylcyclohexyl)-L-glutamine]	0%	9%	18%	38%	Not Calculable	6%	0%	18%	–	–	–	–	–	–	–	–
132 µM	N[C@@H](CCC(=O)O)C(=O)NC1C2CC3CC(C2)CC1C3 (stereo partly shown) [Compound 15]	–	0%	33%	75%	–	–	–	–	15.4 mg/kg	–	–	–	–	–	–	–
368 µM	N[C@@H](CCC(=O)O)C(=O)N1CCC2(CCCC2)CC1 [Compound 30]	–	0%	25%	20%	Not Calculable	–	–	–	–	–	–	–	–	–	–	–
> 1000 µM	CC1(C)CCC(NC(=O)[C@H](N)CCC(=O)O)CC1 [Compound 24]	–	0%	16%	19%	Inactive	8%	0%	0%	–	inactive	completely inactive	11%	–	–	–	change in vivo at 0.1 mg/kg [4]: 0%; change in vivo at 1 mg/kg [4]: 0%; Activity in increasing the avoidance time (in words) [3]: inactive
61.2 µM	N[C@@H](CCC(=O)NCCC12CC3CC(CC(C3)C1)C2)C(=O)O [Compound 45]	–	–	–	–	–	0%	0%	12%	–	–	less active	20%	3%	55%	28.9 mg/kg	–
20.1 µM	CC(C)(C)CCNC(=O)[C@@H](N)CCC(=O)O [Compound 5]	–	12%	32%	23%	Not Calculable	–	–	–	–	–	–	–	10%	22%	–	change in vivo at 0.3 mg/kg [4]: 7%
73.3 µM	N[C@@H](CCC(=O)O)C(=O)NC12CC3CC(CC(C3)C1)C2 [Compound 14]	–	0%	0%	21%	Inactive	–	–	–	–	–	–	–	–	–	–	–
33.5 µM	N[C@@H](CC(=O)O)C(=O)NCCC12CC3CC(CC(C3)C1)C2 [Compound 43]	0%	34%	60%	93%	–	10%	16%	29%	6.4 mg/kg	antidepressant effect of the same order of magnitude as the comparison drug used, amitriptyline	less active	–	19%	53%	38.3 mg/kg	change in vivo at 0.3 mg/kg [4]: 13%; ED30 [3]: 16.9 mg/kg
35.7 µM	N[C@@H](CCC(=O)O)C(=O)NC1CCC2CCCCC2C1 (stereo partly shown) [Compound 11]	5%	32%	64%	19%	–	–	–	–	13.5 mg/kg	–	–	0%	3%	10%	–	–
15 µM	N[C@@H](CCC(=O)O)C(=O)NCCC12CC3CC(CC(C3)C1)C2 [Compound 16]	15%	46%	77%	98%	–	11%	21%	57%	3.9 mg/kg	antidepressant effect of the same order of magnitude as the comparison drug used, amitriptyline	particularly remarkable	50%	46%	73%	4.6 mg/kg	Activity in inhibiting the binding of glutamate (in words) ([2]; rat cortical membranes): considerable activity in inhibiting the binding of the glutamate; change in vivo at 0.1 mg/kg [4]: 0%; change in vivo at 1 mg/kg [4]: 47%; ED30 [3]: 1 mg/kg; Activity in increasing the avoidance time (in words) [3]: considerable activity in increasing the avoidance time
